According to patent US20040259948A1, “Reciprocal regulation of inflammation and lipid metabolism by liver X receptors” (priority 2003, published 2004):

Columns and labels:
[1] = system: Thioglycolate-elicited murine peritoneal macrophages; assay: IL-1β- or TNFα-induced inflammatory gene expression in macrophages; assay type: cell-based; settings: pretreated 18 h; IL-1β or TNFα (50 ng/ml); real-time quantitative PCR
Description: Next, the influence of LXR agonists on inflammatory gene expression induced by IL-1β and TNFα, which have been implicated in the pathogenesis of atherosclerosis, was tested. […] Gene expression was detected by real-time quantitative PCR assays. […] Total RNA was isolated from individual aortas and gene expression was measured by real-time quantitative PCR. P<0.05 for MMP-9 (*) and P<0.01 (**) for ABCA1. […] Thus, LXR agonist reduces expression of an established inflammatory mediator in the vessel wall. Cell culture and transfections. Thioglycolate-elicited peritoneal macrophages were cultured in RPMI containing 10% fetal bovine serum (FBS). RAW 264.7 cells were cultured in DMEM containing 10% FBS. For ligand treatments, cells were in cultured medium supplemented with 5% lipoprotein-deficient serum (LPDS) and ligands for 18 h before stimulation. Bacterial infection in vitro was performed as described (Chen, L. M. et al. 1996 Mol Microbiol 21:1101-1115). Transient transfections of RAW 264.7 cells were performed in triplicate in 48-well plates using Superfect reagent (Life Technologies). After transfection, cells were incubated in medium containing 10% LPDS and the indicated ligands for 18 h before stimulation with LPS for an additional 18 h. Luciferase activity was normalized to β-galactosidase activity. NO production was determined spectrophotometrically (Castrillo, A. et al. 2000 Mol Cell Biol 20:1692-1698). RNA and protein analysis. Total RNA was extracted using Trizol reagent (Life Technologies, Inc.). Northern blot analysis was carried out as described using radiolabeled cDNA probes (Tontonoz, P. et al. 1998 Cell 93:241-252). Real-time quantitative PCR (TaqMan) analysis was performed using an Applied Biosystems 7700 sequence detector. Two-step real-time PCR was performed as described (Joseph, S. B. et al. 2002 J Biol Chem 277:11019-11025). The primers and probes used are as follows: […]

[2] = system: atherosclerotic aortas of Apoe−/− mice; assay: Gene expression in atherosclerotic aortas of Apoe−/− mice; assay type: in vivo; settings: Apoe−/− mice 8 months of age, treated 3 days
Description: Next, the influence of LXR agonists on inflammatory gene expression induced by IL-1β and TNFα, which have been implicated in the pathogenesis of atherosclerosis, was tested. […] Gene expression was detected by real-time quantitative PCR assays. […] Total RNA was isolated from individual aortas and gene expression was measured by real-time quantitative PCR. P<0.05 for MMP-9 (*) and P<0.01 (**) for ABCA1. […] Thus, LXR agonist reduces expression of an established inflammatory mediator in the vessel wall. RNA and protein analysis. Total RNA was extracted using Trizol reagent (Life Technologies, Inc.). Northern blot analysis was carried out as described using radiolabeled cDNA probes (Tontonoz, P. et al. 1998 Cell 93:241-252). Real-time quantitative PCR (TaqMan) analysis was performed using an Applied Biosystems 7700 sequence detector. Two-step real-time PCR was performed as described (Joseph, S. B. et al. 2002 J Biol Chem 277:11019-11025). The primers and probes used are as follows: Animals. Mice on a mixed background (C57B1/6 and 129v) and Apoe^−/− mice on a C57B1/6 background were maintained on standard chow. […] Irritant contact dermatitis was induced as described (Sheu, M. Y. et al. 2002 J Invest Dermatol 118:94-101). Briefly, 10 μl of 0.03% 12-O-tetradecanoylphorbol-13-acetate (TPA) in acetone was applied to the left ears of male mice. The right ears were treated with vehicle alone. […] After 18 h of TPA treatment, the thickness and weight of 6-mm punch biopsies were determined. Statistical analysis was performed using Student's t-test. Experiments were conducted in accordance of the Animal Research Committee of the University of California, Los Angeles.

[3] = system: human smooth muscle cells; assay: TNF-induced gene expression in human smooth muscle cells; assay type: cell-based; settings: TNF 6 hours; real time qPCR
Description: (§1) Activation of LXR by synthetic ligands inhibits inflammatory gene expression in multiple human cell types (FIG. 7A-C). TNFα plays a role in the induction of inflammatory mediators in during inflammation. Cells were treated for 6 hours with TNF as indicated and gene expression was measured by real time qPCR.

C57B1/6 mice = assay: Murine model of irritant contact dermatitis (TPA-treated ear); assay type: in vivo; settings: topical 20 μl of 10 mM at 45 min and 4 h post-TPA; 18 h; relative to vehicle-treated ear
Description: The effects of LXR ligands in both acute and chronic inflammatory contexts were evaluated. First, the effects of LXR agonists in a murine model of irritant contact dermatitis (Sheu, M. Y. et al. 2002 J Invest Dermatol 118:94-101) were studied. Ears of C57B1/6 mice (n=5 per group) were treated topically with 12-O-tetradecanoylphorbol-13-acetate (TPA) (left ear) or with vehicle (right ear). […] Thickness and weight of 6-mm punch biopsies were determined for each group after 18 h TPA treatment and are presented relative to vehicle-treated ear. […] Analysis of hematoxylin and eosin (H&E) stained sections of the TPA-treated ears confirmed a reduction in edema and inflammatory infiltrate by LXR agonist. Thus, two structurally unrelated LXR agonists have anti-inflammatory activity in a model of cutaneous inflammation.
Animals. Mice on a mixed background (C57B1/6 and 129v) and Apoe^−/− mice on a C57B1/6 background were maintained on standard chow. […] Irritant contact dermatitis was induced as described (Sheu, M. Y. et al. 2002 J Invest Dermatol 118:94-101). Briefly, 10 μl of 0.03% 12-O-tetradecanoylphorbol-13-acetate (TPA) in acetone was applied to the left ears of male mice. The right ears were treated with vehicle alone. […] After 18 h of TPA treatment, the thickness and weight of 6-mm punch biopsies were determined. Statistical analysis was performed using Student's t-test. Experiments were conducted in accordance of the Animal Research Committee of the University of California, Los Angeles.

[4] = system: human aortic endothelial cells; assay: TNF-induced gene expression in human aortic endothelial cells; assay type: cell-based; settings: TNF 6 hours; real time qPCR
Description: as §1

Q: With `O=C(O)Cc1cccc(OCCCN(Cc2cccc(C(F)(F)F)c2Cl)CC(c2ccccc2)c2ccccc2)c1` [GW3965] as the compound, how does the “induction of IL-6 expression” value [1] read?
A: The value was “inhibited”.

Q: What about the “induction of iNOS expression” value [1] of the same compound?
A: Its value is “inhibited”.

Q: What about the “expression of ABCA1 in aorta” value ([2]; real-time quantitative PCR) of the same compound?
A: The value was “induced”.

Q: And the “expression of macrophage-specific marker CD68 in aorta” value ([2]; real-time quantitative PCR)?
A: The value was “did not affect”.

Q: And the “expression of MCP-1 in aorta” value ([2]; versus vehicle)?
A: The value was “not different”.

Q: And the “expression of MMP-9 in aorta” value ([2]; versus vehicle)?
A: The value was “substantially reduced”.

Q: And the “expression of iNOS in aorta” value ([2]; versus vehicle)?
A: The value was “not different”.

Q: What about the TNF-induced gene expression [3] of the same compound?
A: Its TNF-induced gene expression is “inhibited”.

Q: What about the ear thickness (C57B1/6 mice) of the same compound?
A: The ear thickness was “reduced”.

Q: What about the “ear weight (6-mm punch biopsies)” value (C57B1/6 mice) of the same compound?
A: The value was “reduced”.

Q: And the TNF-induced gene expression [4]?
A: Its TNF-induced gene expression is “inhibited”.
